Experiment [1] addresses metalloprotease LF (lethal factor) (Bacillus anthracis, UniProt P15917). In words: biochemical.
Experiment [2] is described as follows: Insulin tolerance test in insulin insensitive db/db mice. The note with it: 25 mg/kg i.p. once, 30 minutes prior to insulin injection. In kind it is in vivo.
For experiment [3], the target named is Akt1 (Homo sapiens, UniProt P31749). Briefly: Selectivity profile: Akt1. The experiment is classed as biochemical.

One may read the IC50 as the concentration that gives 50% inhibition. Read a high IC50 as a need for much substance.

metalloprotease LF (lethal factor), sequence (P15917 34-809 limits assumed): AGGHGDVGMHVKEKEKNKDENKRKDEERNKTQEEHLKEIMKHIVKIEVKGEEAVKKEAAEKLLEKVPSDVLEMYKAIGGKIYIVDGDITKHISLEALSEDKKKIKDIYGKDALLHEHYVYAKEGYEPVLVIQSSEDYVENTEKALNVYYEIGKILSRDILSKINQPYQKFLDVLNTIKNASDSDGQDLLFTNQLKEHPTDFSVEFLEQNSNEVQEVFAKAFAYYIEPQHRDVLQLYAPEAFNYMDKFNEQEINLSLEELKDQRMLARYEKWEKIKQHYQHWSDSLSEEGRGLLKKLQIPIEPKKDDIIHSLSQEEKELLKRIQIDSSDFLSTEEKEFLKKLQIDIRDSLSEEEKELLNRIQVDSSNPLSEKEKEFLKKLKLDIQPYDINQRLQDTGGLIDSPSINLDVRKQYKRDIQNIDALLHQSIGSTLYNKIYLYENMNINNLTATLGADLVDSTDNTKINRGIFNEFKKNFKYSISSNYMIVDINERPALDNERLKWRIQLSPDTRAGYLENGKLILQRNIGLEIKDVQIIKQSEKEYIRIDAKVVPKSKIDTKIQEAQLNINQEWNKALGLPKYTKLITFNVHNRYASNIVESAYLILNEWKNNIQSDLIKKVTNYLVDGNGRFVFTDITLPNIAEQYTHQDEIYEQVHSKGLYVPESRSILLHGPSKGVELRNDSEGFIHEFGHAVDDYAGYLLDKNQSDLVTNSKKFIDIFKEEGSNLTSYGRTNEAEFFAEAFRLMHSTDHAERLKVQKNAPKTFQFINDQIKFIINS
Akt1, sequence (P31749 whole entry, species assumed): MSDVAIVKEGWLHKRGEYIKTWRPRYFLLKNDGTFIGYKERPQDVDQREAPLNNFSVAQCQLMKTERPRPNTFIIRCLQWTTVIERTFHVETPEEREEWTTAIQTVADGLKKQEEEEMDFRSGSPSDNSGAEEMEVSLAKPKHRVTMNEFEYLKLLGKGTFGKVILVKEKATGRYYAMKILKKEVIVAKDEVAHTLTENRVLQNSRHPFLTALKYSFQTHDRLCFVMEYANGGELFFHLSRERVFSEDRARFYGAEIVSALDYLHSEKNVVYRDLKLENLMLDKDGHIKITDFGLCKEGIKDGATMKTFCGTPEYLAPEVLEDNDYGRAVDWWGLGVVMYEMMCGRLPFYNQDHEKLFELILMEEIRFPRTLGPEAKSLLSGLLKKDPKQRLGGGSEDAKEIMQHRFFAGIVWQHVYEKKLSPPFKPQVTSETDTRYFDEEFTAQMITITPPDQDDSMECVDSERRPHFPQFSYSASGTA

`Nc1nnc(Sc2ncc([N+](=O)[O-])s2)s1` [Compound 9, 5-(5-nitrothiazol-2-ylthio)-1,3,4-thiadiazol-2-amine]: the IC50 in experiment [1] was over 100 µM. Moreover, the “effect of insulin on blood glucose levels compared to the vehicle control” value in experiment [2] is “statistically significant reduction in blood glucose levels”. In addition, in experiment [3], the “activity against Akt kinase” value is “completely inactive”.
Molecule `Cn1cccc1-c1nnc(Sc2ncc([N+](=O)[O-])s2)n1-c1ccc(Cl)cc1Cl` [Compound 7b, 2-(4-(2,4-dichlorophenyl)-5-(1-methyl-1H-pyrrol-2-yl)-4H-1,2,4-triazol-3-ylthio)-5-nitrothiazole] displayed an IC50 in experiment [1] of over 100 µM.
Same read-out and setting: to `O=[N+]([O-])c1cnc(Sc2nnc(Sc3ncc([N+](=O)[O-])s3)s2)s1` [Compound 8f, 2,5-bis(5-nitrothiazol-2-ylthio)-1,3,4-thiadiazole] belongs over 100 µM; to `O=c1[nH]nc(Sc2ncc([N+](=O)[O-])s2)n1-c1ccc([N+](=O)[O-])cc1` [Compound 3j, 4-(4-nitrophenyl)-5-(5-nitrothiazol-2-ylthio)-4H-1,2,4-triazol-3-ol], over 100 µM.

Values taken from PMC2667321 (Journal of medicinal chemistry, 2009).
